Consider two molecules from paper PMC10828988, “Tuning the Softness of the Pendant Arms and the Polyazamacrocyclic Backbone to Chelate the ^203Pb/^212Pb Theranostic Pair” (Inorganic Chemistry, 2024).

On the set-up of data set [1]: method as in doi:10.1016/0010-8545(91)80023-7. The following applies: T = 25 °C, nonfunctionalized macrocycles; cited from earlier work.
The nature of data set [2]: Out-of-cell UV-Vis spectrophotometric titrations (stability constants, pPb). Format: physicochemical. The protocol: The ionic strength (I) was fixed to 0.15 M using sodium nitrate (NaNO3) as background electrolytes. All of the experiments described below were repeated at least in triplicate.
UV–Vis spectrophotometric titrations were carried out by the out-of-cell method in the pH range of 0–12 at T = 25 °C. […] A Mettler Toledo pH meter with a glass electrode was used to measure the pH. […] In highly acidic solutions (pH ≪ 2), the pH was computed from the acid concentration (pH = −logCH^+). After the pH adjustment, the vials were sealed, heated to T = 60 °C to ensure complete Pb^2+ complexation, and cooled to room temperature. The absorption spectra were recorded using the same apparatus described for the kinetic measurements (vide supra). The equilibrium was reached when no variations of the electronica spectra or the pH were detected.
All equilibrium data were processed using the least-squares fitting program PITMAP as described in our previous works.[2],[4],[28] The overall equilibrium constants refer to the general equilibria pM^m+ + qH^+ + rL^l– ⇆ MpHqLr^pm+q–rl, where M^m+ represent the metal ion and L^l– represents the deprotonated ligand, and are designated as logβ (βpqr = [MpLqHr]/[M]^p[L]^q[H]^r). The refinements of log β included the previously determined ligand protonation constants and the Pb^2+ hydrolysis products whose equilibrium constants were fixed to the literature values.[27],[39] […] The errors quoted are the standard deviations of the overall stability constants calculated by the PITMAP program.

Data set [3] in a line: Concentration-dependent radiolabeling with [203Pb]Pb2+ (iTLC). The following applies: for radiochemical incorporation (RCI) of [^203Pb]Pb^2+: 1 h. The protocol:
Water replaced the ligands in the negative control. All of the radiolabeling for the cyclen-based derivatives was performed at room temperature and monitored at 5 min and 1 h time points whereas heating at T = 80 °C was also employed for TACD3S, TRI4S, and TE4S. All radiolabeling reactions were repeated at least in triplicate.
Radiochemical incorporation (RCI) was determined via instant thin-layer chromatography (iTLC) with silicic acid (SA)-impregnated paper TLC plates (iTLC-SA, Agilent Technologies, USA). Ethylenediamine tetraacetic acid (EDTA, 50 mM, pH = 5.5) was used as the eluent. […] The iTLC plates were analyzed on an Eckert & Ziegler AR-2000 TLC scanner, and all the data were processed with Eckert & Ziegler WinScan software.

Data set [4] is described as follows: Formation kinetics of Pb2+ complexes (UV-Vis / 1H NMR). The data set is classed as physicochemical. Conditions: pH = 5, equimolar ligand and metal concentrations (10^–4 M), room temperature. The protocol:
The formation kinetics of the Pb^2+ complexes was evaluated at room temperature by UV–Vis or ^1H NMR spectroscopy. A typical experiment was performed by mixing equimolar amounts of metal and ligand solutions (final concentrations: 1.0 × 10^–4 M for UV–Vis, 1.0 × 10^–3 M for ^1H NMR) in buffered media at pH = 2 (HCl 10^–2 M), pH = 3.7 (formic/formiate buffer), pH = 5 (acetic/acetate buffer), and pH = 7.4 (2-[4-(2-hydroxyethyl)piperazin-1-yl]ethanesulfonic acid, i.e., HEPES, buffer). To avoid the formation of PbCO3 (Ks = 7.4 × 10^–14), water was boiled before each measurement.
The electronic spectra were collected in the 200–800 nm range at different time points using a Cary 60 UV–Visible spectrophotometer (Agilent) equipped with a 1 cm path length quartz cell. The complexation reactions were monitored by the increase in the absorption peaks diagnostic of the Pb^2+-ligand complex formation at the characteristic wavelength (Table S2) over time. ^1H NMR spectra were recorded on a 400 MHz Bruker Avance III HD spectrometer. All data were collected […] with Topspin 3.5 using standard Bruker processing parameters with Topspin 4.1.1 software. […] Water suppression was carried out with the excitation sculpting pulse scheme.[38]

The nature of data set [5]: Direct in-cell pH-potentiometric titrations. The data set is classed as physicochemical. The following applies: pH-potentiometry, I = 0.15 M NaNO3, T = 25 °C. The protocol:
Nitric acid (HNO3) solutions were prepared at ∼10^–1 M by dilution of the concentrated acid (Aristar - VWR Chemicals, 69%) and standardized against sodium carbonate (Aldrich, 99.95–100.5%). Carbonate-free sodium hydroxide (NaOH) solutions were prepared at ∼10^–1 M from commercial pellets (Fluka, 99% min) using freshly boiled ultrapure water and standardized using the previously standardized acid. […] Pb^2+ solutions were preprepared from analytical-grade nitrate salt (Pb(NO3)2, Sigma-Aldrich, 99%) and standardized using complexometric titrations with ethylenediaminetetraacetic acid (EDTA) with xylenole orange as an indicator. The ionic strength (I) was fixed to 0.15 M using sodium nitrate (NaNO3) as background electrolytes. All of the experiments described below were repeated at least in triplicate.
Direct (in-cell) pH-potentiometric titrations were carried out with an automated Metrohm 765 Dosimat titrating system using a Metrohm 713 pH meter. […]
All equilibrium data were processed using the least-squares fitting program PITMAP as described in our previous works.[2],[4],[28] […] The refinements of log β included the previously determined ligand protonation constants and the Pb^2+ hydrolysis products whose equilibrium constants were fixed to the literature values.[27],[39] […] The errors quoted are the standard deviations of the overall stability constants calculated by the PITMAP program.

Setting [6] is: calculated at CPb^2+ = 10^–6 M, Cligand = 10^–5 M, pH = 7.4.

Marks after values point to notes of the source that are not given here. A value given as a limit tells only on which side of the number the result lay.

Turning to `C1CNCCNCCNCCN1` [cyclen, 1,4,7,10-tetrazacyclododecane], the “logK Pb^2+-macrocycle” value in data set [1] is listed as 15.9.

`CSCCN1CCN(CC(=O)O)CCN(CCSC)CCN(CC(=O)O)CC1` [DO2A2S, 1,7-bis[2-(methylsulfanyl)ethyl]-1,4,7,10-tetraazacyclododecane-4,10-diacetic acid]: in data set [2] (UV–Vis spectrophotometric titrations, I = 0.15 M NaNO3, T = 25 °C), the “log β, Pb^2+ + L ⇋ [PbL]” value came out at 18.3 ± 0.1. The “pPb = −log[Pb^2+]free” value in data set [2] (setting [6]) is on record as 15.7. Moreover, the “pPb* (−log of free Pb^2+ plus hydrolysis products)” value in data set [2] (setting [6]) is 15.4. Further, the “effect of a change in reaction time on RCI” value in data set [3] (5 min vs 1 h, pH = 7, room temperature) is on record as “no effect”. Also, the “radiochemical incorporation (RCI) of [^203Pb]Pb^2+” value in data set [3] (ligand 10^–4 M, pH = 7, room temperature) is listed as more than 90%; in data set [3] (ligand 10^–5 M, pH = 7, room temperature), more than 90%; in data set [3] (ligand 10^–6 M, pH = 7, room temperature), 68 ± 1%; in data set [3] (ligand 10^–7 M, pH = 7, room temperature), 56 ± 4%. Also, in data set [3] (room temperature, 5 min reaction time, chelator concentration as low as 10^–5 M), the “radiochemical incorporation of [^203Pb]Pb^2+” value was “quantitative radiochemical incorporation”. Also, the “time to reach equilibrium of Pb^2+ complexation” value in data set [4] is given as “practically instantaneous”. In data set [5], the “log β, Pb^2+ + H^+ + L^2– ⇋ [PbHL]^+” value is 20.89 ± 0.07 ^c. In addition, the “log β, Pb^2+ + L^2– ⇋ [PbL]” value in data set [5] is 18.2 ± 0.1.
